Biological target: ATP-binding cassette sub-family C member 2 (Homo sapiens, UniProt Q92887)
Test: TP_TRANSPORTER: transepithelial transport (basal to apical) in MRP2-expressing MDCKII cells
Assay type: functional, cell-based
Conditions: dog, mdck-ii

Sequence of ATP-binding cassette sub-family C member 2 (Q92887 whole entry): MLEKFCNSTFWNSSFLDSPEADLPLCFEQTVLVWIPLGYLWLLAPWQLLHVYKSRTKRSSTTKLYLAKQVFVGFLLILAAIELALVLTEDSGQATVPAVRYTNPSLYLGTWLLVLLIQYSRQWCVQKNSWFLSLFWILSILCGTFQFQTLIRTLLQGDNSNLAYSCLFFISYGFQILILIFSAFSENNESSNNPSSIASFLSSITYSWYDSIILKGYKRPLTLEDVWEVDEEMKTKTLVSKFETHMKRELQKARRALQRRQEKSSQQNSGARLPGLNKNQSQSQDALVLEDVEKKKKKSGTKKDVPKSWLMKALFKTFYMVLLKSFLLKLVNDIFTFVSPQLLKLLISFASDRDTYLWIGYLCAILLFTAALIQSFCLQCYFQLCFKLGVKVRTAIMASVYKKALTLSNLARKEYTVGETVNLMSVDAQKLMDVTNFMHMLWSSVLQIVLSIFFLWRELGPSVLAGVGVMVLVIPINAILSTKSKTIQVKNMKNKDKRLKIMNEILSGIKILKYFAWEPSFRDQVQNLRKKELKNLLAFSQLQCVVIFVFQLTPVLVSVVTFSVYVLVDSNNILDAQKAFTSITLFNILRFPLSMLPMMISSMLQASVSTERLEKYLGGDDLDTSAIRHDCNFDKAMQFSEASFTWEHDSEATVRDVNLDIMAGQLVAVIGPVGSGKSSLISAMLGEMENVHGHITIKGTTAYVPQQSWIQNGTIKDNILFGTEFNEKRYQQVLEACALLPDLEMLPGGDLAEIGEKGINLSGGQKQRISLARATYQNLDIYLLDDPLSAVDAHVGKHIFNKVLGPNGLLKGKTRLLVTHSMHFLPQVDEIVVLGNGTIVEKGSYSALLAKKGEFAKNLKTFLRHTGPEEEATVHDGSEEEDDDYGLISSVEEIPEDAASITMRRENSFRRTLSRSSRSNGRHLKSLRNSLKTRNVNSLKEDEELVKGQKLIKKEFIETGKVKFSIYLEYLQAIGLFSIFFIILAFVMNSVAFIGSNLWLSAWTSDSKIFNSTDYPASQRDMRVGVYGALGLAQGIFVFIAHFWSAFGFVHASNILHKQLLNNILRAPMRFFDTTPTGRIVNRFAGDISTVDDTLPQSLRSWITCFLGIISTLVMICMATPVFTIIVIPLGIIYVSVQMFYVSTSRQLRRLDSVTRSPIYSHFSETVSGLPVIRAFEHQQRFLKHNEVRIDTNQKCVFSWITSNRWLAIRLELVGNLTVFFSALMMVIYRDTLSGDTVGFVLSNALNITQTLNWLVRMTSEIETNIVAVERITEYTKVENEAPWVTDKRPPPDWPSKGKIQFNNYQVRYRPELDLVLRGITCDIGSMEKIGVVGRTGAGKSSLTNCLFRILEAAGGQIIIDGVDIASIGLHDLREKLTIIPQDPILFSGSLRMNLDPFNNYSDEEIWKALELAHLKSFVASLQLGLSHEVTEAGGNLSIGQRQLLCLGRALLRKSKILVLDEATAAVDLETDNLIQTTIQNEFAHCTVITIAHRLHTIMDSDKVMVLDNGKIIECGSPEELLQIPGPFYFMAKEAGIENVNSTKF

**Q.** With Cn1c(N)nc2ncc(-c3ccccc3)cc21 [2-AMINO-1-METHYL-6- PHENYLIMIDAZO[4,5- B]PYRIDINE] as the compound, how does the Activity read?
**A.** Its Activity is “substrate [+]”.
